Measurements from patent US5015637A, “Pyrido[3,4-b]pyrrolo[1,2-e][1,4,5]oxadiazepines” (Hoechst-Roussel Pharmaceutical Inc., priority 1990, dated 1991).

System: Phenylquinone-Induced Writhing in Mice
Test: Inhibition of Phenylquinone-Induced Writhing in Mice (PQW)
Format: in vivo, mice (male CD-1 Charles River)
Description: Compounds I of the present invention are also useful as analgesic agents due to their ability to alleviate pain in mammals. […] Exptl. Biol. Med., 95, 729 (1957)].
Inhibition of Phenylquinone-Induced Writhing in Mice (PQW)
A 0.125% concentration of phenyl-p-benzoquinone in a 5% aqueous solution of ethyl alcohol is administered to mice (10 mL/kg, ip). This produces a characteristic "writhe" which is defined as an inward rotation of one or more feet with twisting and turning of the trunk, drawing in of the abdominal wall, lordosis, and arching of the back. A total of 28 male CD-1 Charles River mice (18-30 g) are employed for a time-response. Animals receive food and water ad libitum during their stay in the animal quarters prior to testing. Compounds are tested at 20 mg/kg, sc and are prepared with distilled water, and if insoluble one drop of Tween-80, a surfactant, is added. Compounds are administered in a dosage volume of 10 mL/kg.
Twenty mice (five per group) are administered the test compound at various pretreat time (e.g., 15, 30, 45, and 60 min) prior to phenylquinone injection. Control animals (two per group) receive an equal volume of vehicle. After the administration of phenylquinone, the mice are placed separately into 1-L beakers, and 5 min are allowed to elapse. The mice are then observed for a period of 10 min, and the number of writhes is recorded for each animal. The formula for computing percent inhibition is [formula]
The time period with the maximum percent of inhibition is considered the peak time. A dose-response is reserved for interesting compounds or those which inhibit writhing by 70% or more. A dose-response is run in the same manner as a time-response except 10 animals per group are tested at the peak time of drug activity. Fifty animals, divided among four drug groups and one vehicle control group, are employed. The mice are normally given four doses of drug, each twice the amount of the preceding dose. An ED50 is calculated by a computer linear regression analysis.

SMILES: CN1c2ccncc2OCc2cccn21 [5-Methyl-5H,10H-pyrido[3,4-b]pyrrolo[1,2-e][1,4,5]-oxadiazepine]
- % Inhibition of Writhing @ 20 mg/kg, s.c.: 58%

SMILES: CC(C)=CCN1CCC2(C)c3cc(O)ccc3CC1C2C (stereo not drawn) [Pentazocine, reference compound]
- % Inhibition of Writhing (at the dose of 1.3 mg/kg, s.c. (footnote *)): 50%

SMILES: CN1CCC(C2Oc3cnccc3N(C)n3cccc32)CC1 (stereo not drawn) [5-Methyl-10-(1-methyl-4-piperidinyl)-5H,10H-pyrido[3,4-b]pyrrolo[1,2-e][1,4,5]oxadiazepine]
- % Inhibition of Writhing @ 20 mg/kg, s.c.: 47%
